Results published in patent US20220378740A1, “COMPOSITIONS AND METHODS OF MAKING EXPANDED HEMATOPOIETIC STEM CELLS USING DERIVATIVES OF CARBAZOLE” (Transfusion Health, LLC, priority 2019, published 2022).

Assays:
[1] = system: HSCs derived from cord blood; experiment: Long-term (14 day) expansion of hematopoietic stem cells derived from cord blood; format: cell-based, human; details: 14 days in culture; Compound 2.001 at 10 μM, Compound 2.002 at 1 μM, Compound 2.003 at 10 μM
Protocol: (§1) CD34+ cells from cord blood were purchased from STEMCELL Technologies. Primary human CD34+ cells were isolated by the supplier from cord blood samples using positive immunomagnetic separation techniques. Cells were thawed and gradually brought to room temperature. Samples were washed, then placed in overnight culture in StemSpan with 100 ng/ml each of FLT3L, TPO, SCF, and IL-6. Eighteen to twenty-four hours later (day 1), cells were counted and immunophenotyped (flow cytometry on an Invitrogen Attune N×T cytometer).
(§2) All incubations for this experiment took place at 3%˜ oxygen (controlled by nitrogen) and […]. Following seven days of culture, cells from wells were collected and phenotypes were analyzed (flow cytometry on an Invitrogen Attune N×T cytometer).
Cells were cultured to seven days as described in Example 5. Following seven days in culture, 25% of cells from selected wells were passaged to 12-well plates (2 ml total volume), with conditions for these wells prepared as on day 1. Wells selected were: Compound 2.001 at 10 μM, Compound 2.002 at 1 μM, Compound 2.003 at 10 μM, and base conditions with vehicle control (DMSO). Cells were then allowed seven further days of expansion prior to analysis at day 14. Cell numbers calculated at day 14 account for the passaging of the cells at day seven.

[2] = system: CD34+ cells from cord blood; experiment: Expansion of cord blood-derived CD34+ cells in culture, fold change days 1 to 7 (flow cytometry); format: cell-based, human; details: relative to vehicle control (DMSO), 3% oxygen
Protocol: as §1
Approximately 1000 live cells were plated into each well of 96-well plates (total volume 200 μl); exact cell numbers dispensed per well were quantified with flow cytometry for later calculations.
Media for testing compounds of Formula I, except for compound 2.015, was prepared using StemSpan SFEM (STEMCELL Technologies). Media for testing compound 2.015 was prepared using Alpha-MEM without phenol red (Gibco) with 10% (v/v) heat inactivated fetal bovine serum (FBS). All other treatments are the same for all tested compounds. Culture conditions also included an antibiotic solution that includes penicillin, streptomycin, and amphotericin B to avoid contamination. Additional media components and concentrations used for the compounds tested are described in Table 2.
as §2
The graphs in FIG. 1-5 report the fold change in cells between days 1 and 7. Each point in the figures reports the average fold change of the indicated number of replicates at the noted concentration of the compound of Formula I tested. Error bars display the maximum and minimum fold change measured at that concentration. The dashed line reports the expansive effect of the base conditions (i.e. vehicle control).
Table 3, below, summarizes the relative expansive effects of Compounds 2.001 to 2.004 and 2.015 at the indicated concentration. It is calculated as shown below: […]

[3] = 3.162 μM compound, StemSpan SFEM
[4] = 2.819 μM compound, Alpha-MEM without phenol red with 10% FBS

Structure (SMILES) | expansion of HSCs from cord blood in extended culture [1] | CD34 effect (relative expansive effect on CD34+ cells) ([2]; 1 μM compound, StemSpan SFEM) | CD90 effect (relative expansive effect on CD34+/CD133+/CD90+ cells) ([2]; 1 μM compound, StemSpan SFEM) | also measured
CC(=O)Nc1ccc2c(c1)[nH]c1ccccc12 [Compound 2.001, N-(9H-carbazol-2-yl)acetamide] | expand HSCs from cord blood for at least 14 days in culture |  |  | CD34 effect (relative expansive effect on CD34+ cells) ([2]; 10 μM compound, StemSpan SFEM): ++++ (1.8 ≤ × < 2.2); CD90 effect (relative expansive effect on CD34+/CD133+/CD90+ cells) ([2]; 10 μM compound, StemSpan SFEM): +++++ (2.2 ≤×)
CC(C)(C)C(=O)Nc1ccc2c(c1)[nH]c1ccccc12 [Compound 2.002, N-(9H-carbazol-2-yl)-2,2-dimethylpropanamide] | expand HSCs from cord blood for at least 14 days in culture | ++++ (1.8 ≤ × < 2.2) | ++++ (1.8 ≤ × < 2.2) | 
CC(C)(C)C(=O)Nc1ccc2c(c1)oc1ccccc12 [Compound 2.004, 2,2-dimethyl-N-{8-oxatricyclo[7.4.0.0^2,7]trideca-1(13),2(7),3,5,9,11-hexaen-5-yl}propanamide] |  | +++ (1.6 ≤ × < 1.8) | ++ (1.2 ≤ × < 1.6) | 
CC(=O)Nc1ccc2c(c1)oc1ccccc12 [Compound 2.003, N-{8-oxatricyclo[7.4.0.0^2,7]trideca-1(13),2(7),3,5,9,11-hexaen-5-yl}acetamide] | expand HSCs from cord blood for at least 14 days in culture |  |  | CD34 effect (relative expansive effect on CD34+ cells) [2, 3]: ++++ (1.8 ≤ × < 2.2); CD90 effect (relative expansive effect on CD34+/CD133+/CD90+ cells) [2, 3]: ++++ (1.8 ≤ × < 2.2)
COc1cc2c(cc1N)oc1ccccc12 [Compound 2.015] |  |  |  | CD34 effect (relative expansive effect on CD34+ cells) [2, 4]: + (1 < × < 1.2); CD90 effect (relative expansive effect on CD34+/CD133+/CD90+ cells) [2, 4]: + (1 < × < 1.2)
